# Patent US20090238808A1, “Process for the identification of novel enzyme interacting compounds” (priority 2005, published 2009)
# Legend:
# GSK3alpha = target: T1, GSK3alpha (Homo sapiens, UniProt P49840); test: In-lysate competition binding with kinobeads, Jurkat lysate, Western blot; details: Jurkat lysate preincubated with 0.025-6.0 μM compound
# T1 construct: Aliqots of Jurkat lysate (10 mg protein) were incubated with different Bis VIII concentrations; endogenous in cells; host or cells: Jurkat clone E6-1 lysate
# Description: (§1) This example illustrates competition binding in cell lysates (see particularly the third aspect of the invention). A test compound, Bisindolylmaleimide VIII (Bis VIII, a well known kinase inhibitor; Davies et al., 2000. Specificity and mechanism of action of some commonly used protein kinase inhibitors. Biochemical Journal 351 (Pt 1): 95-105) was added to a cell lysate thereby allowing the test compound to bind to the target proteins in the lysate. Then the lysate was contacted with the kinobeads affinity matrix to capture remaining free target proteins. The proteins bound to the kinobeads matrix were then eluted with detergent-containing buffer, separated on a SDS-polyacryamide gel and analyzed by immunodetection (Western blots) or mass spectrometry detection.
# (§2) For Western blot analysis proteins bound to the affinity matrix were eluted from the affinity matrix and subsequently separated by SDS-Polyacrylamide gel elecrophoresis and transferred to a blotting membrane. Individual kinases were detected with specific antibodies against GSK3alpha, GSK3beta and ITK (FIG. 4A). […] For GSK3beta the signal was quantified and plotted against the Bis VIII concentration added to the cell lysate (FIG. 4B).
# (§3) Aliqots of Jurkat lysate (10 mg protein) were incubated with different Bis VIII concentrations for one hour at 4° C. (0.025 μM, 0.074 μM, 0.22 μM, 0.67 μM, 2.0 μM and 6.0 μM final concentration of Bis VIII). To this end Bis VIII solutions were prepared in 100% DMSO as solvent that corresponded to 200 fold desired final Bis VIII concentration (Bis VIII from Alexis Biochemicals cat. number ALX 270-056). Five μl of these solutions were added to 1 ml of lysate resulting in the indicated final concentrations. For a control experiment 5 μl of DMSO without Bis VIII were used.
# (§4) To each preincubated lysate sample 40 μl of kinobeads (see example 1) were added and incubated for one hour at 4° C. During the incubation the tubes were rotated on an end-over-end shaker (Roto Shake Genie, Scientific Industries Inc.). […]
# GSK3beta = target: T2, GSK3beta (Homo sapiens, UniProt P49841); test: as above; details: Jurkat lysate preincubated with 0.025-6.0 μM compound
# T2 construct: Aliqots of Jurkat lysate (10 mg protein) were incubated with different Bis VIII concentrations; endogenous in cells; host or cells: Jurkat clone E6-1 lysate
# Description: as §1, §2, §3, §4
# ITK = target: T3, ITK (Homo sapiens, UniProt Q08881); test: as above; details: Jurkat lysate preincubated with 0.025-6.0 μM compound
# T3 construct: Aliqots of Jurkat lysate (10 mg protein) were incubated with different Bis VIII concentrations; endogenous in cells; host or cells: Jurkat clone E6-1 lysate
# Description: as §1, §2, §3, §4
# CDKL5 = CDKL5 (Mus musculus, UniProt Q3UTQ8); test: Kinobeads elution with test compound, mouse brain lysate, MS; type: binding; details: kinase released from kinobeads by specific elution
# Excerpt: This example illustrates competitive elution of proteins bound to kinobeads with non-modified test compounds (see particularly the fourth aspect of the invention). […] The kinobeads were contacted with mouse brain lysate under conditions that allow the binding of the proteins in the lysate to the ligands. The binding conditions were close to physiological by choosing suitable buffer conditions preserving the function of the proteins. After removing non-captured proteins through a gentle washing procedure the bound proteins were contacted with a test compound for protein elution. […] 1. […] Transfer 20 μl the 1:3 slurry into MoBiTech columns (equivalent to 5 μl of beads). 3. Place the column into an Eppendorf tube and centrifuge it for 15 seconds at 800 rpm at 4° C. Close columns with lower lid. 4. Add 10 μl elution buffer containing 1.0 mM of the test compound (concentration ranges of 0.1 to 1.0 mM are suitable). […] Close column with upper lid. 5. Incubate for 30 minutes at 4° C. in an Eppendorf incubator at 700 rpm. 6. Open column (first top, then bottom), put column back into siliconized tube ([…] Microcentrifuge Tubes, cat. no 11270, Sorenson BioScience, Inc.). To harvest the eluate centrifuge 2 minutes at 2.000 rpm in table top centrifuge at room temperature. The typical volume of the eluate is approximately 15 μl. 7. […]
# CDKL5, sequence (Q3UTQ8 whole entry): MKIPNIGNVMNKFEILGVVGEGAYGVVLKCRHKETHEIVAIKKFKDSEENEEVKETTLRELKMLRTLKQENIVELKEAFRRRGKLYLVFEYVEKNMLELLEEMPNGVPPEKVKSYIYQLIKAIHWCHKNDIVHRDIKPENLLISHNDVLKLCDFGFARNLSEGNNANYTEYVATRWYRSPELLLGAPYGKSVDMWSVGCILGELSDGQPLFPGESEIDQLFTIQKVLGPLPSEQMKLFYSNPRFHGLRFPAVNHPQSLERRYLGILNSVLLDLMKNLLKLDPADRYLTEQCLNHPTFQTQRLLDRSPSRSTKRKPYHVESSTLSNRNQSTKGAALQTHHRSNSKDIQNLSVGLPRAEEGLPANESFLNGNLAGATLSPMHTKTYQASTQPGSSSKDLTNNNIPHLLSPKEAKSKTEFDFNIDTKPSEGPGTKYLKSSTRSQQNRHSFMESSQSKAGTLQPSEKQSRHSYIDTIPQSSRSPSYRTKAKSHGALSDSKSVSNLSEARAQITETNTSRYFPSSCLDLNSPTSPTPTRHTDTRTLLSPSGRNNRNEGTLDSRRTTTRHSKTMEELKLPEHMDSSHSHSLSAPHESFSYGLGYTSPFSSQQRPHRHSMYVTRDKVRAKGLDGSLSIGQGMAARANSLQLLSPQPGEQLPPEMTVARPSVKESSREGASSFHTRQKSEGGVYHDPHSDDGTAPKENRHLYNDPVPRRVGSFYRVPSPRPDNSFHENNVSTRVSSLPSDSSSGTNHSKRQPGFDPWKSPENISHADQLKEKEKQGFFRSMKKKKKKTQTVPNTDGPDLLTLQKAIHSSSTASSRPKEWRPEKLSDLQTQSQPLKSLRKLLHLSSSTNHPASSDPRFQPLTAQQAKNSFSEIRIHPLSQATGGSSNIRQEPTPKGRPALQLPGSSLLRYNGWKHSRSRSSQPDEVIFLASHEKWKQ
# T2 sequence (P49841 whole entry): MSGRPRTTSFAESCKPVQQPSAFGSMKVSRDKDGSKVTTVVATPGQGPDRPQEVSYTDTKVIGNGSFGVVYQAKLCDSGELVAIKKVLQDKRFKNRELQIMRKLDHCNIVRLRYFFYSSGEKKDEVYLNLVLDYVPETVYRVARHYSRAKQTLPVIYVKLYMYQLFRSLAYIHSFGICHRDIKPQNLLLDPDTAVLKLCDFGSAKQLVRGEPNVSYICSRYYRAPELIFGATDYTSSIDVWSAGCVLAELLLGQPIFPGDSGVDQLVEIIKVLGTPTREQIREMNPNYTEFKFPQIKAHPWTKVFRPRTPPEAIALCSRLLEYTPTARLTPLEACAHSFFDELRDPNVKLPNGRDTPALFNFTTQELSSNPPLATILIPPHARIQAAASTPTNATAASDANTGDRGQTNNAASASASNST
# T3 sequence (Q08881 whole entry): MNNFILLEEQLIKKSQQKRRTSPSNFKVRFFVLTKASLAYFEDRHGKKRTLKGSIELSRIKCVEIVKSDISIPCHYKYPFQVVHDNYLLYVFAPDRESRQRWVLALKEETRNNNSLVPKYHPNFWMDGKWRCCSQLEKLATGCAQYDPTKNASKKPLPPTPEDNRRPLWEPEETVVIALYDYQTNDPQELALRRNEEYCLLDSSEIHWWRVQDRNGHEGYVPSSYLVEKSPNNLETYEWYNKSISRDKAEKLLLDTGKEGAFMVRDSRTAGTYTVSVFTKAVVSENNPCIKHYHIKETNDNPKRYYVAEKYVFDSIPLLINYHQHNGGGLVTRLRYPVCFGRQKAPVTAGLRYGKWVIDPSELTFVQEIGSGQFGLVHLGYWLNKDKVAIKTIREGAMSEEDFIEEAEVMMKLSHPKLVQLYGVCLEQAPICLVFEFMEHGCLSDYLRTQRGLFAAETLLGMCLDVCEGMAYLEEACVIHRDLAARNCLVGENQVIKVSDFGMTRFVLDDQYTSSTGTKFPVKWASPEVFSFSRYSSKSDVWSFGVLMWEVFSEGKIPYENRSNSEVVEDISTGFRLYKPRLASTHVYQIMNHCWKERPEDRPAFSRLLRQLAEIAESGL
# T1 sequence (P49840 whole entry): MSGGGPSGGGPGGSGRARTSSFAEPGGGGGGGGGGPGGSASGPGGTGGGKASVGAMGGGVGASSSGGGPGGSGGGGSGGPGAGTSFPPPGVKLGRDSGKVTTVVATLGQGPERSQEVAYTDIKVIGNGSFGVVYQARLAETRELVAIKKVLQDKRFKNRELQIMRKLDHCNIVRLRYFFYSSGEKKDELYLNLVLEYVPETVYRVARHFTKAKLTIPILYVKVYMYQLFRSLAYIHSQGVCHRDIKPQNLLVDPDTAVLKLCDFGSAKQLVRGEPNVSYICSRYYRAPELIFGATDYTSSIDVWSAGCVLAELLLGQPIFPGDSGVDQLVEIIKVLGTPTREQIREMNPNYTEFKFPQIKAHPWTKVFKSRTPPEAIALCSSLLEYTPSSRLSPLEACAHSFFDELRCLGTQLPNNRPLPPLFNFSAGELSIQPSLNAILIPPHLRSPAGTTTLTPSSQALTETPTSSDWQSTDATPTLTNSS
Compound,"binding of GSK3alpha to kinobeads, Western blot (GSK3alpha)","binding of GSK3beta to kinobeads, Western blot (GSK3beta)","binding of ITK to kinobeads, Western blot (ITK)","mass spectrometry score, CDKL5 (CDKL5)","number of identified peptides, CDKL5 (CDKL5)"
"Cn1cc(C2=C(c3cn(CCCN)c4ccccc34)C(=O)NC2=O)c2ccccc21 [Bis VIII, Bisindolylmaleimide VIII]",prevented binding,prevented binding,not binding of ITK,–,–
"CC(C)[C@H](CO)Nc1nc(Nc2ccc(C(=O)O)c(Cl)c2)c2ncn(C(C)C)c2n1 [Purvalanol B, reference compound]",–,–,–,48,1
